Experimental data reported in ChEMBL document CHEMBL1201862, “PubChem BioAssay data set” (2004).
Calls of active or inactive are those of the source.

Experiments:
[1] = molecular target: T1, Zinc finger protein mex-5 (Caenorhabditis elegans, UniProt Q9XUB2); test: potency of MEX-5 RNA-binding blockers – biochemical, C. elegans, fluorescence polarization, dose response (AID 1960)
T1 sequence (Q9XUB2 whole entry): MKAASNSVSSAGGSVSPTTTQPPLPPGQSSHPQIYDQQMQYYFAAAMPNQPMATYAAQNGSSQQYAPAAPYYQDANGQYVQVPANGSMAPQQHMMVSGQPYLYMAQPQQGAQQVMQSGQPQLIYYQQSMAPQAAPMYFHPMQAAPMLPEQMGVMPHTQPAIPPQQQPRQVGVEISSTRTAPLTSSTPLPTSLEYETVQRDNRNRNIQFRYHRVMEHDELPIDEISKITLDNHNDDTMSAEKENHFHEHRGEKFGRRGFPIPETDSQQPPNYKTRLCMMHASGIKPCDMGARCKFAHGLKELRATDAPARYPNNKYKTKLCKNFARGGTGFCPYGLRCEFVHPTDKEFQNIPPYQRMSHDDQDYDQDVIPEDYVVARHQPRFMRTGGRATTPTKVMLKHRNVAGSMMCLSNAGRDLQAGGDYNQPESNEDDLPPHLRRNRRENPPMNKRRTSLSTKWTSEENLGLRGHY

[2] = molecular target: T2, RNA-binding protein pos-1 (Caenorhabditis elegans, UniProt G5EF15); test: disruptors of C. elegans POS-1 RNA interaction – biochemical, fluorescence polarization, dose response (AID 1964);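 further: purified POS-1 fused to maltose binding protein made in E. coli; potency of compounds blocking POS-1 binding to fluorescent RNA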
T2 sequence (G5EF15 whole entry): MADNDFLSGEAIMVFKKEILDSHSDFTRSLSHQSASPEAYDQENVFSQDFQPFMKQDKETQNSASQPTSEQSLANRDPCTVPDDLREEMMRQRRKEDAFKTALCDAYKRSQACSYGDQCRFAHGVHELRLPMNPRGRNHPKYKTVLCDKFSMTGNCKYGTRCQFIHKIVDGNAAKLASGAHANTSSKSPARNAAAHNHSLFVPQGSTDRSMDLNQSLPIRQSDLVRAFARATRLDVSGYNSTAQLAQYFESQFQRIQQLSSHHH

cells = format: functional
[3] = molecular target: T3, Calpain-2 catalytic subunit (Sus scrofa, UniProt P43367); test: m-calpain protease blockers, concentration series – biochemical, fluorogenic peptide substrate, dose response (AID 1420); format: functional
T3 sequence (P43367 whole entry): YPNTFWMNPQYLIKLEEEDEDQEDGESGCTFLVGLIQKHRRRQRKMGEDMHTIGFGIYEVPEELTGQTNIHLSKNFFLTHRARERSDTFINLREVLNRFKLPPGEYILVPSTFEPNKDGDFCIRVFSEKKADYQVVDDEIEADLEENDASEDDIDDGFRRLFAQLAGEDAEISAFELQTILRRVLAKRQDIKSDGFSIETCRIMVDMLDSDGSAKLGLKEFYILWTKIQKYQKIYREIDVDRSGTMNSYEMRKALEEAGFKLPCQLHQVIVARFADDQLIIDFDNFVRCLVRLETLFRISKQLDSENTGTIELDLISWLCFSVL

Paired box protein Pax-8 = Paired box protein Pax-8 (Homo sapiens, UniProt Q06710); test: PAX8 transcriptional activity inhibition in RMG-I – RMG-I cells, luciferase, cherry-pick, dose response (AID 687027); format: functional, cell-based;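 further: luciferase reporter driven by Pax8 target thyroperoxidase promoter measured by SteadyGlo luminescence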
Cytochrome P450 2C9 = Cytochrome P450 2C9 (Homo sapiens, UniProt P11712)
[4] = alpha-synuclein stem-loop luciferase translation blockers – H4 neuroglioma cells, luminescence, confirmation (AID 1988); format: functional, cell-based
[5] = luciferase reporter signal suppression in cells – H4 neuroglioma cells, luminescence, dose response (AID 1990); format: functional, cell-based
[6] = Luminescence Cell-Based Dose Response HTS to Identify Inhibitors of 5'UTR Stem-Loop Driven Prion Protein mRNA Translation in H4 Neuroglioblastoma Cells. [Related pubchem assays: 1827 (Project Summary), 1813 (Primary HTS)]; format: functional
Cytochrome P450 3A4 = Cytochrome P450 3A4 (Homo sapiens, UniProt P08684);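 further: CYP3A4 tested as one member of a cytochrome P450 panel screen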
[7] = molecular target: T4, Corticotropin-releasing factor receptor 2/Corticotropin-releasing factor-binding protein (Homo sapiens, UniProt P24387+Q13324); test: Dose Response confirmation of uHTS hits for small molecule antagonists of the CRF-binding protein and CRF-R2 receptor complex.; format: functional; settings: read-out: IC50_Mean
T4 sequence (Q13324 whole entry): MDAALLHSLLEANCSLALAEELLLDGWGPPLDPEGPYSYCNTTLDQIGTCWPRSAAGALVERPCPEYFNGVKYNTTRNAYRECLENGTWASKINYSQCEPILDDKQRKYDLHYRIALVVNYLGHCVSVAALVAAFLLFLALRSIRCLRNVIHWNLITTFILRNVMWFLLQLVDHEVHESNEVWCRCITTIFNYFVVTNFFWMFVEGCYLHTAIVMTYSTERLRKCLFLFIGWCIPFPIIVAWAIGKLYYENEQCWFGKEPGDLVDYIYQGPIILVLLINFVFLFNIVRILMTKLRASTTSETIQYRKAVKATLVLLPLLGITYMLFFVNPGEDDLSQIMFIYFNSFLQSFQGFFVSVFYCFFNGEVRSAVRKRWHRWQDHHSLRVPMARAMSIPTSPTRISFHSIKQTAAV
T4 sequence (P24387 whole entry): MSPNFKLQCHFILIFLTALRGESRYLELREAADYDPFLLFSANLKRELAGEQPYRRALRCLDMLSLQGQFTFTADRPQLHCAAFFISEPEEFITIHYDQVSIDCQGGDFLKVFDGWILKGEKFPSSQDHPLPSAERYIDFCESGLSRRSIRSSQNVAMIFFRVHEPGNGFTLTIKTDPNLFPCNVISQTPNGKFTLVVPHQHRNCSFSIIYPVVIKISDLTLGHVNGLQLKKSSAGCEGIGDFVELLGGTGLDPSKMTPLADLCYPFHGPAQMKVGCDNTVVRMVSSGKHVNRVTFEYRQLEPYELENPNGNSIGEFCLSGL

[8] = molecular target: T4, Corticotropin-releasing factor receptor 2/Corticotropin-releasing factor-binding protein; test: activators of CRF receptor 2 with binding protein – uHTS hits, confirmation (AID 602473); format: functional; settings: read-out: EC50_Mean
Cytochrome P450 2C19 = Cytochrome P450 2C19 (Homo sapiens, UniProt P33261); test: Cytochrome panel assay with activity outcomes. Panel member name: p450-cyp2c19 Compounds with AC50 equal or less than 10 uM are considered active; format: functional; settings: read-out: AC50
Cytochrome P450 2D6 = Cytochrome P450 2D6 (Homo sapiens, UniProt P10635);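 further: CYP2D6 member of a cytochrome P450 panel assay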
Sequence of Cytochrome P450 2D6 (P10635 whole entry): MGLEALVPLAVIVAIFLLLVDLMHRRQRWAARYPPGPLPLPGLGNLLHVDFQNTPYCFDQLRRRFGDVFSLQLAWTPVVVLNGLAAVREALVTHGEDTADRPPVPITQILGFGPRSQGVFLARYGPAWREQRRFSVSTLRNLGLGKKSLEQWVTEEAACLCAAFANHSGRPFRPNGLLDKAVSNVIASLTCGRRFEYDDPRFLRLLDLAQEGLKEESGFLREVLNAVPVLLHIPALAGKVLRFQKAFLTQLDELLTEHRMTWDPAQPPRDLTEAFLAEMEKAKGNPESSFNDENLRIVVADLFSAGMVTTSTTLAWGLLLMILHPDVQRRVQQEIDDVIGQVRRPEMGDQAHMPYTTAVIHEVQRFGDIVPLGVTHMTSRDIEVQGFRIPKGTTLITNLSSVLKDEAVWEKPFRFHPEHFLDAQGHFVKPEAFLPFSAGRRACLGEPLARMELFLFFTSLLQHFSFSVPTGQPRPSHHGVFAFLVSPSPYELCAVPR

Sequence of Cytochrome P450 2C9 (P11712 whole entry): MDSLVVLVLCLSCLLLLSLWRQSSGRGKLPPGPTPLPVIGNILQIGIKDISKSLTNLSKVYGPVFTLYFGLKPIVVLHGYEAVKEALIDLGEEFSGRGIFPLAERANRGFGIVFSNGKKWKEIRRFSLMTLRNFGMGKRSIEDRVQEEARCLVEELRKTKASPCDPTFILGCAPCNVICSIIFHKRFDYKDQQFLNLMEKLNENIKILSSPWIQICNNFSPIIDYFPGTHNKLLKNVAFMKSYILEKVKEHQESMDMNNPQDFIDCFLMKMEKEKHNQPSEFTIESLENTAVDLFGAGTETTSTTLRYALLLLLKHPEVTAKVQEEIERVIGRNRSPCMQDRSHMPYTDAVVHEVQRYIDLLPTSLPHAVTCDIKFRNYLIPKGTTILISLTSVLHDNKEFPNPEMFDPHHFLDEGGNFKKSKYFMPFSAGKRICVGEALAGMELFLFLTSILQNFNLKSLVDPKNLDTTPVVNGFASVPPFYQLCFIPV
Sequence of Cytochrome P450 2C19 (P33261 whole entry): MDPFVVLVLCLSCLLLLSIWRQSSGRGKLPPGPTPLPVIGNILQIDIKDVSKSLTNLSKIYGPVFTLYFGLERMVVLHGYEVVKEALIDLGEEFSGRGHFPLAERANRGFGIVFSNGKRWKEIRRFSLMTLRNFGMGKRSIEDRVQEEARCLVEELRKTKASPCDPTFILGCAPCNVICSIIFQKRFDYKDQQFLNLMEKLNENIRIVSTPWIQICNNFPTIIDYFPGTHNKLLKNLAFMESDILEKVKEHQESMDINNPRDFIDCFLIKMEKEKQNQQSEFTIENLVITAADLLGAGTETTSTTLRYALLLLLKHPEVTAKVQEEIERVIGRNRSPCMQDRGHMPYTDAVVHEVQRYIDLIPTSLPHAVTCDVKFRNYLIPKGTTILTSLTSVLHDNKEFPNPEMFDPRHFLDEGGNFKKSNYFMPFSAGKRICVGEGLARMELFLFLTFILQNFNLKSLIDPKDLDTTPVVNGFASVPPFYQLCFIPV
Sequence of Cytochrome P450 3A4 (P08684 whole entry): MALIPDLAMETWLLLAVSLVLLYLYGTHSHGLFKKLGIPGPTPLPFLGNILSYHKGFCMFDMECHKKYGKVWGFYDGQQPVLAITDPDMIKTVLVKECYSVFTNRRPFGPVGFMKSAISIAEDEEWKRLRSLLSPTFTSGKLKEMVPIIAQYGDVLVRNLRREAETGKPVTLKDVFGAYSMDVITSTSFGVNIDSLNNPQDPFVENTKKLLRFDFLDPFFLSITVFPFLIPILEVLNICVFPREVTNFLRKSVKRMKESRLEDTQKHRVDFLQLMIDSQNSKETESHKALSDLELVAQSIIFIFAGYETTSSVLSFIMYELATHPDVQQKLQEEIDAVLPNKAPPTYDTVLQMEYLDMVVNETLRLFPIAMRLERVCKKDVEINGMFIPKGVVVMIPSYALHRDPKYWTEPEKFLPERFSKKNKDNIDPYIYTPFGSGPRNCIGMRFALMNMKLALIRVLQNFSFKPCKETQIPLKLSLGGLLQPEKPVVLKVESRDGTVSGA
Sequence of Paired box protein Pax-8 (Q06710 whole entry): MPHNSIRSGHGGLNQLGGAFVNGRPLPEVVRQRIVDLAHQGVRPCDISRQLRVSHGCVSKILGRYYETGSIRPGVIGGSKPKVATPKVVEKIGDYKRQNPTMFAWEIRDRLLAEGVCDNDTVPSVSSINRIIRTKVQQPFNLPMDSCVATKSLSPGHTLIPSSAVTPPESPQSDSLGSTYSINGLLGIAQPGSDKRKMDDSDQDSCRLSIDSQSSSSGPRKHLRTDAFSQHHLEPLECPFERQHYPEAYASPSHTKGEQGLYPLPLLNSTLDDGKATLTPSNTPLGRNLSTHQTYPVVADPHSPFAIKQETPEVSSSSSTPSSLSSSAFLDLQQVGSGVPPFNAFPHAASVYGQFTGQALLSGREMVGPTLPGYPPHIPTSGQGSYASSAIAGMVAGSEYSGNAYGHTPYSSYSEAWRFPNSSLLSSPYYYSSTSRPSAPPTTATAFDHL

Q: With `Cc1ccccc1C1=N/C(=C/c2cccs2)C(=O)O1` as the molecule, how does the EC50 [1] read?
A: 39.1 µM (active)

Q: What about the EC50 [2] of the same molecule?
A: > 300 µM (not active)

Q: With `COC(=O)C1=C(N)OC2=C(C(=O)CC(C)(C)C2)C1c1cccnc1` (configuration not stated) as the molecule, how does the IC50 (cells) read?
A: > 50 µM (active)

Q: For `O=C(CCn1c(=O)[nH]c2ccsc2c1=O)NCc1ccc(F)cc1`, which IC50 [3] is on record?
A: < 0.4 µM (not active)

Q: Which AC50 (Paired box protein Pax-8) does the source give for `O=C(OCC(=O)N1CCN(C(=O)c2ccco2)CC1)c1cccc(S(=O)(=O)N2CCc3ccccc32)c1` here?
A: 1.38 µM (active)

Q: For `O=C1C2CCCCC2C(=O)N1c1ccc(NC2CCCCC2)c([N+](=O)[O-])c1` (configuration not stated), which IC50 [3] is on record?
A: 4.65 µM (active)

Q: Which AC50 (Cytochrome P450 2C9) does the source give for `COc1ccc(NC(=O)c2ccc(C(=O)c3cc(OC)ccc3OC)cc2)cc1` here?
A: 22.4 µM (inconclusive)

Q: With `COC(=O)c1nn(-c2ccccc2)c(-c2ccccc2)c1C(=O)c1ccccc1` as the molecule, how does the AC50 (Cytochrome P450 2C9) read?
A: 15.8 µM (inconclusive)

Q: And the EC50 [4]?
A: > 120 µM (not active)

Q: What about the EC50 [5] of the same molecule?
A: > 120 µM (not active)

Q: And the EC50 [6]?
A: > 120 µM (not active)

Q: And the AC50 (Cytochrome P450 3A4)?
A: 14.1 µM (inconclusive)

Q: Which IC50 [7] does the source give for `Cc1ccc(Sc2c(C=O)c3ccccc3n2C)cc1` here?
A: > 47.1 µM (inactive)

Q: And the EC50 [8]?
A: > 53 µM (inactive)

Q: Which AC50 (Cytochrome P450 2C9) does the source give for `Fc1ccc([C@H]2CCNC[C@H]2COc2ccc3c(c2)OCO3)cc1` here?
A: 2 µM (inconclusive)

Q: Which results are given for `Cc1ccc(O)c(-c2cc(C(F)(F)C(F)F)nc(-c3ccccc3)n2)c1`?
A: AC50 (Cytochrome P450 2C9): 7.08 µM (inconclusive); AC50 (Cytochrome P450 2C19): 14.1 µM (inconclusive); AC50 (Cytochrome P450 3A4): 8.91 µM (inconclusive)

Q: What does the source list for `O=C(Nc1cccc2ncccc12)c1ccc(-c2ccc(Br)cc2)o1`?
A: AC50 (Cytochrome P450 2C9): 0.282 µM (inconclusive); AC50 (Cytochrome P450 2D6): 12.6 µM (inconclusive)

Q: For `Cc1ccc(NC(=O)/C(=C\c2cccnc2)NC(=O)c2ccco2)cc1`, which AC50 (Cytochrome P450 2C9) is on record?
A: 20 µM (inconclusive)

Q: And the AC50 (Cytochrome P450 2C19)?
A: 35.5 µM (inconclusive)

Q: Which EC50 [1] does the source give for `CCN(CC)CCN/C=C1\C(=O)NC(=O)N(CCc2ccccc2)C1=O` here?
A: > 300 µM (not active)

Q: What about the EC50 [2] of the same molecule?
A: > 300 µM (not active)

Q: For `CCOCCCNC(=O)C1CCC(CNS(=O)(=O)c2ccc(Cl)cc2)CC1` (configuration not stated), which IC50 [3] is on record?
A: > 50 µM (not active)

Q: For `CCN1C(=O)NC(=O)/C(=C\c2cn(CC(=O)O)c3ccccc23)C1=O`, which EC50 [1] is on record?
A: > 300 µM (not active)

Q: And the EC50 [2]?
A: > 300 µM (not active)

Q: With `O=C1c2ccc3c4c(ccc(c24)C(=O)N1c1ccc2ccccc2c1)CC3` as the molecule, how does the AC50 (Cytochrome P450 2C9) read?
A: 3.98 µM (inconclusive)

Q: And the EC50 [4]?
A: 119 µM (active)

Q: What about the EC50 [5] of the same molecule?
A: 11.6 µM (active)

Q: What about the EC50 [6] of the same molecule?
A: 36.6 µM (active)

Q: And the AC50 (Cytochrome P450 2C19)?
A: 2.24 µM (inconclusive)
